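Where inhibition never reached the appropriate level, the endpoint shown equals the highest concentration tested. Otherwise, values were interpolated linearly from a five-concentration, 48-hour dose response in 96-well plates. GI50 marks 50% less growth. TGI denotes the concentration required for complete inhibition of growth.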
Columns and labels:
Experiment in all cases: NCI anticancer screen, dose series, 48 h
RXF 393 renal = test system: RXF 393 renal
SR leukemia = test system: SR leukemia
SF-268 CNS = test system: SF-268 CNS
NCI/ADR-RES ovarian = test system: NCI/ADR-RES ovarian
KM12 colon = test system: KM12 colon
SW-620 colon = test system: SW-620 colon
UACC-257 melanoma = test system: UACC-257 melanoma
SK-OV-3 ovarian = test system: SK-OV-3 ovarian
NCI-H460 lung = test system: NCI-H460 lung
ACHN renal = test system: ACHN renal
SNB-75 CNS = test system: SNB-75 CNS
SF-539 CNS = test system: SF-539 CNS
SNB-19 CNS = test system: SNB-19 CNS
HCC-2998 colon = test system: HCC-2998 colon
T-47D breast = test system: T-47D breast
MOLT-4 leukemia = test system: MOLT-4 leukemia
NCI-H522 lung = test system: NCI-H522 lung
MDA-MB-231 breast = test system: MDA-MB-231 breast
PC-3 prostate = test system: PC-3 prostate
IGROV1 ovarian = test system: IGROV1 ovarian
CCRF-CEM leukemia = test system: CCRF-CEM leukemia
BT-549 breast = test system: BT-549 breast
UACC-62 melanoma = test system: UACC-62 melanoma
RPMI-8226 leukemia = test system: RPMI-8226 leukemia
HT29 colon = test system: HT29 colon
UO-31 renal = test system: UO-31 renal
K-562 leukemia = test system: K-562 leukemia
LOX IMVI melanoma = test system: LOX IMVI melanoma
NCI-H23 lung = test system: NCI-H23 lung
OVCAR-4 ovarian = test system: OVCAR-4 ovarian
SF-295 CNS = test system: SF-295 CNS
HCT-15 colon = test system: HCT-15 colon
EKVX NSCLC = test system: EKVX NSCLC
U251 CNS = test system: U251 CNS
COLO 205 colon = test system: COLO 205 colon
SK-MEL-28 melanoma = test system: SK-MEL-28 melanoma
MDA-MB-435 = test system: MDA-MB-435
HCT-116 colon = test system: HCT-116 colon
CAKI-1 renal = test system: CAKI-1 renal
HOP-92 NSCLC = test system: HOP-92 NSCLC
OVCAR-5 ovarian = test system: OVCAR-5 ovarian
SN12C renal = test system: SN12C renal
HL-60(TB) leukemia = test system: HL-60(TB) leukemia
OVCAR-3 ovarian = test system: OVCAR-3 ovarian
OVCAR-8 ovarian = test system: OVCAR-8 ovarian
A549 NSCLC = test system: A549 NSCLC
SK-MEL-2 melanoma = test system: SK-MEL-2 melanoma
786-0 renal = test system: 786-0 renal
SK-MEL-5 melanoma = test system: SK-MEL-5 melanoma
MCF7 breast = test system: MCF7 breast
HOP-62 NSCLC = test system: HOP-62 NSCLC
M14 melanoma = test system: M14 melanoma
TK-10 renal = test system: TK-10 renal
HS 578T breast = test system: HS 578T breast
DU-145 prostate = test system: DU-145 prostate
NCI-H226 lung = test system: NCI-H226 lung
MALME-3M melanoma = test system: MALME-3M melanoma
A498 renal = test system: A498 renal

## CC(=O)CCC[C@@H](C)[C@@H]1O[C@H]([C@@]2(C)CCC(=O)O2)CC2[C@H]1OC(=O)C21CC1 (some centres undefined)
RXF 393 renal
  GI50: > 100 µM
  TGI: > 100 µM
SR leukemia
  GI50: 29.4 µM
  TGI: > 100 µM
SF-268 CNS
  GI50: > 100 µM
  TGI: > 100 µM
NCI/ADR-RES ovarian
  GI50: 71.3 µM
  TGI: > 100 µM
KM12 colon
  GI50: > 100 µM
  TGI: > 100 µM
SW-620 colon
  GI50: > 100 µM
  TGI: > 100 µM
UACC-257 melanoma
  GI50: 50.7 µM
  TGI: > 100 µM
SK-OV-3 ovarian
  GI50: > 100 µM
  TGI: > 100 µM
NCI-H460 lung
  GI50: 39.7 µM
  TGI: > 100 µM
ACHN renal
  GI50: > 100 µM
  TGI: > 100 µM
SNB-75 CNS
  GI50: > 100 µM
  TGI: > 100 µM
SF-539 CNS
  GI50: 60.6 µM
  TGI: > 100 µM
SNB-19 CNS
  GI50: > 100 µM
  TGI: > 100 µM
HCC-2998 colon
  GI50: 77.2 µM
  TGI: > 100 µM
T-47D breast
  GI50: > 100 µM
  TGI: > 100 µM
MOLT-4 leukemia
  GI50: 75.5 µM
  TGI: > 100 µM
NCI-H522 lung
  GI50: > 100 µM
  TGI: > 100 µM
MDA-MB-231 breast
  GI50: > 100 µM
  TGI: > 100 µM
PC-3 prostate
  GI50: 52.5 µM
  TGI: > 100 µM
IGROV1 ovarian
  GI50: 55 µM
  TGI: > 100 µM
CCRF-CEM leukemia
  GI50: > 100 µM
  TGI: > 100 µM
BT-549 breast
  GI50: 25.5 µM
  TGI: 63.4 µM
UACC-62 melanoma
  GI50: > 100 µM
  TGI: > 100 µM
RPMI-8226 leukemia
  GI50: > 100 µM
  TGI: > 100 µM
HT29 colon
  GI50: > 100 µM
  TGI: > 100 µM
UO-31 renal
  GI50: > 100 µM
  TGI: > 100 µM
K-562 leukemia
  GI50: > 100 µM
  TGI: > 100 µM
LOX IMVI melanoma
  GI50: 77.1 µM
  TGI: > 100 µM
NCI-H23 lung
  GI50: 15.3 µM
  TGI: 59.6 µM
OVCAR-4 ovarian
  GI50: > 100 µM
  TGI: > 100 µM
SF-295 CNS
  GI50: 61.6 µM
  TGI: > 100 µM
HCT-15 colon
  GI50: > 100 µM
  TGI: > 100 µM
EKVX NSCLC
  GI50: 8.03 µM
  TGI: 49.5 µM
U251 CNS
  GI50: 91.3 µM
  TGI: > 100 µM
COLO 205 colon
  GI50: > 100 µM
  TGI: > 100 µM
SK-MEL-28 melanoma
  GI50: > 100 µM
  TGI: > 100 µM
MDA-MB-435
  GI50: > 100 µM
  TGI: > 100 µM
HCT-116 colon
  GI50: > 100 µM
  TGI: > 100 µM
CAKI-1 renal
  GI50: 61.2 µM
  TGI: > 100 µM
HOP-92 NSCLC
  GI50: > 100 µM
  TGI: > 100 µM
OVCAR-5 ovarian
  GI50: > 100 µM
  TGI: > 100 µM
SN12C renal
  GI50: > 100 µM
  TGI: > 100 µM
HL-60(TB) leukemia
  GI50: > 100 µM
  TGI: > 100 µM
OVCAR-3 ovarian
  GI50: > 100 µM
  TGI: > 100 µM
OVCAR-8 ovarian
  GI50: > 100 µM
  TGI: > 100 µM
A549 NSCLC
  GI50: > 100 µM
  TGI: > 100 µM
SK-MEL-2 melanoma
  GI50: > 100 µM
  TGI: > 100 µM
786-0 renal
  GI50: > 100 µM
  TGI: > 100 µM
SK-MEL-5 melanoma
  GI50: 21.7 µM
  TGI: 92.4 µM
MCF7 breast
  GI50: 22.3 µM
  TGI: > 100 µM

## N=C1C(c2nc3ccccc3c(=O)[nH]2)=C(O)CN1c1cccc(Cl)c1
RXF 393 renal
  GI50: 2.6 µM
  TGI: > 27.3 µM
SR leukemia
  GI50: 0.302 µM
  TGI: 2.68 µM
SF-268 CNS
  GI50: 8.78 µM
  TGI: > 100 µM
NCI/ADR-RES ovarian
  GI50: 3.16 µM
  TGI: > 100 µM
KM12 colon
  GI50: 2.01 µM
  TGI: > 100 µM
SW-620 colon
  GI50: 3.28 µM
  TGI: > 100 µM
HOP-62 NSCLC
  GI50: 4.7 µM
  TGI: > 100 µM
UACC-257 melanoma
  GI50: > 100 µM
  TGI: > 100 µM
SK-OV-3 ovarian
  GI50: 5.55 µM
  TGI: > 100 µM
NCI-H460 lung
  GI50: 3.72 µM
  TGI: > 85.6 µM
M14 melanoma
  GI50: 5.26 µM
  TGI: > 100 µM
ACHN renal
  GI50: 3.4 µM
  TGI: > 100 µM
SNB-75 CNS
  GI50: 3.83 µM
  TGI: > 100 µM
SF-539 CNS
  GI50: 3.51 µM
  TGI: 24.8 µM
TK-10 renal
  GI50: 6.68 µM
  TGI: > 50.6 µM
SNB-19 CNS
  GI50: 6.74 µM
  TGI: > 100 µM
HCC-2998 colon
  GI50: 34.3 µM
  TGI: > 100 µM
MOLT-4 leukemia
  GI50: 4.51 µM
  TGI: > 100 µM
NCI-H522 lung
  GI50: 4.57 µM
  TGI: > 100 µM
MDA-MB-231 breast
  GI50: > 100 µM
  TGI: > 100 µM
PC-3 prostate
  GI50: 2.69 µM
  TGI: > 29.5 µM
IGROV1 ovarian
  GI50: 37.6 µM
  TGI: > 100 µM
HS 578T breast
  GI50: 2.79 µM
  TGI: 12.3 µM
CCRF-CEM leukemia
  GI50: 2.88 µM
  TGI: > 100 µM
BT-549 breast
  GI50: 13.7 µM
  TGI: > 100 µM
UACC-62 melanoma
  GI50: 3.27 µM
  TGI: > 100 µM
RPMI-8226 leukemia
  GI50: 2.15 µM
  TGI: 6.37 µM
HT29 colon
  GI50: 0.845 µM
  TGI: > 100 µM
UO-31 renal
  GI50: 13.3 µM
  TGI: > 100 µM
K-562 leukemia
  GI50: 1.39 µM
  TGI: > 100 µM
LOX IMVI melanoma
  GI50: 5.68 µM
  TGI: > 100 µM
NCI-H23 lung
  GI50: 4.67 µM
  TGI: > 100 µM
OVCAR-4 ovarian
  GI50: > 23 µM
  TGI: > 100 µM
SF-295 CNS
  GI50: 3.23 µM
  TGI: 17.8 µM
HCT-15 colon
  GI50: 1.51 µM
  TGI: > 100 µM
EKVX NSCLC
  GI50: 8.29 µM
  TGI: > 100 µM
U251 CNS
  GI50: 2.22 µM
  TGI: > 50 µM
COLO 205 colon
  GI50: 5.07 µM
  TGI: > 100 µM
DU-145 prostate
  GI50: 5.12 µM
  TGI: > 57.9 µM
SK-MEL-28 melanoma
  GI50: > 22.3 µM
  TGI: > 100 µM
MDA-MB-435
  GI50: 0.948 µM
  TGI: 3.8 µM
HCT-116 colon
  GI50: 2.79 µM
  TGI: > 100 µM
CAKI-1 renal
  GI50: 3.11 µM
  TGI: > 29.3 µM
HOP-92 NSCLC
  GI50: > 100 µM
  TGI: > 100 µM
OVCAR-5 ovarian
  GI50: > 30.8 µM
  TGI: > 100 µM
NCI-H226 lung
  GI50: > 100 µM
  TGI: > 100 µM
SN12C renal
  GI50: 19.2 µM
  TGI: > 100 µM
HL-60(TB) leukemia
  GI50: 2.34 µM
  TGI: > 100 µM
MALME-3M melanoma
  GI50: 1.03 µM
  TGI: 10.7 µM
OVCAR-3 ovarian
  GI50: 2.15 µM
  TGI: 5.06 µM
OVCAR-8 ovarian
  GI50: 5.35 µM
  TGI: > 100 µM
A549 NSCLC
  GI50: 5.36 µM
  TGI: > 100 µM
SK-MEL-2 melanoma
  GI50: > 100 µM
  TGI: > 100 µM
786-0 renal
  GI50: 4.05 µM
  TGI: > 100 µM
SK-MEL-5 melanoma
  GI50: 1.26 µM
  TGI: 7.55 µM
MCF7 breast
  GI50: 4.19 µM
  TGI: > 100 µM
A498 renal
  GI50: 1.9 µM
  TGI: 17.1 µM

— PubChem BioAssay (NCI)
